Assay results reported in US11987583B2, “Fused triazolo-pyrimidine compounds having useful pharmaceutical application” (PIKSci Inc., priority 2017, dated 2024).
Read-outs that look alike come from different tables or passages of the source.

What was measured:
[1] = tested on: IL-23 secretion by LPS-induced PBMCs; test: IL-23 secretion by LPS-stimulated human PBMCs (ELISA); type: cell-based; settings: 2 h pre-incubation, 100 ng/mL LPS 18 hours
Method: Human PBMCs were plated in 96 well plate at a density of 150,000 cells per a well in RPMI medium supplemented with 10% FBS. The cells were pre-incubated with compounds for 2 h. Following pre-incubation, the cells were stimulated with 100 ng/mL LPS for 18 hours. The secreted IL-23 was determined by ELISA (Human IL-23 Quantikine ELISA Kit, R&D cat #D2300B).

multiple myeloma KMS12E = test: Cell viability (Presto Blue), multiple myeloma KMS12E; type: cell-based; settings: Homo sapiens, KMS12E cells, 70 hours exposure, read-out: Plasma cell myeloma, IC50
Method: (§1) Three cancer cell lines, multiple myeloma KMS12E, Non-hodgkin's lymphoma SU-DHL4, T-cell lymphoma Hut-78, and normal human peripheral blood mononuclear cells derived from healthy individual were tested. The cells were plated in 384 well plates in RPMI medium supplemented with 10% fetal bovine serum. Cancer cells were plated at 1000 cells/well and normal cells at 10,000 cells per well in a total volume of 30 uL/well. Immediately after plating, the test compounds were added at […] concentrations: 10 uM-1 uM-0.01 uM-0.001 uM, in duplicate wells for each concentration. The cells were exposed to compounds for 70 hours at 37° C. in humidified incubator with 5% CO2. Cell viability was determined by Presto Blue reagent (Thermo Scientific/Invitrogen).

[2] = tested on: multiple myeloma KMS12E, Non-hodgkin's lymphoma SU-DHL4, T-cell lymphoma Hut-78; test: Cell viability (Presto Blue), panel of cancer cell lines; type: cell-based; settings: Homo sapiens; range over KMS12E, SU-DHL4, Hut-78; 70 hours; read-out: IC50, viability of the three cancer cell lines
Method: Three cancer cell lines, multiple myeloma KMS12E, Non-hodgkin's lymphoma SU-DHL4, T-cell lymphoma Hut-78, and normal human peripheral blood mononuclear cells derived from healthy individual were tested. The cells were plated in 384 well plates in RPMI medium supplemented with 10% fetal bovine serum. Cancer cells were plated at 1000 cells/well and normal cells at 10,000 cells per well in a total volume of 30 uL/well. Immediately after plating, the test compounds were added at five concentrations: 10 uM-1 uM-0.01 uM-0.001 uM, in duplicate wells for each concentration. The cells were exposed to compounds for 70 hours at 37° C. in humidified incubator with 5% CO2. Cell viability was determined by Presto Blue reagent (Thermo Scientific/Invitrogen).

[3] = tested on: normal human peripheral blood mononuclear cells; test: Cell viability (Presto Blue), normal human PBMCs; type: cell-based; settings: for IC50: Homo sapiens, PBMC
Method: as §1

T-cell lymphoma Hut-78 = test: Cell viability (Presto Blue), T-cell lymphoma Hut-78; type: cell-based; settings: Homo sapiens, HuT78, Hut-78 cells, 70 hours exposure
Method: as §1

[4] = tested on: Acute myelomonocytic leukemia cells ML-2; test: Caspase3/7 activity (Caspase-Glo 3/7) in ML-2 cells; type: cell-based; settings: 15 h, 24 h and 41 h after exposure
Method: Acute myelomonocytic leukemia cells ML-2 were plated in 96 well plate at a density of 50,000 cells per a well in RPMI medium supplemented with 10% FBS. The cells were exposed to compounds and the early apoptosis marker, Caspase3/7 activity, was measured in the cells at 15 h, 24 h and 41 h after exposure to compounds. The caspase activity was determined using Caspase-Glo® 3/7 Assay (Promega) and according to the protocol provided by the manufacturer.

[5] = target: T1, Full length human recombinant PIKFYVE (Homo sapiens, UniProt Q9Y2I7); test: Biochemical PIKfyve assay; settings: 2 nM enzyme, 10 μM ATP, 3 h room temperature
T1 construct: Full length human recombinant PIKFYVE expressed in baculovirus expression system as N-terminal GST-fusion protein; GST (N); purchased Carna Biosciences (Kobe, Japan); host or cells: baculovirus expression system
T1 sequence (Q9Y2I7 whole entry, the tested form may be a part): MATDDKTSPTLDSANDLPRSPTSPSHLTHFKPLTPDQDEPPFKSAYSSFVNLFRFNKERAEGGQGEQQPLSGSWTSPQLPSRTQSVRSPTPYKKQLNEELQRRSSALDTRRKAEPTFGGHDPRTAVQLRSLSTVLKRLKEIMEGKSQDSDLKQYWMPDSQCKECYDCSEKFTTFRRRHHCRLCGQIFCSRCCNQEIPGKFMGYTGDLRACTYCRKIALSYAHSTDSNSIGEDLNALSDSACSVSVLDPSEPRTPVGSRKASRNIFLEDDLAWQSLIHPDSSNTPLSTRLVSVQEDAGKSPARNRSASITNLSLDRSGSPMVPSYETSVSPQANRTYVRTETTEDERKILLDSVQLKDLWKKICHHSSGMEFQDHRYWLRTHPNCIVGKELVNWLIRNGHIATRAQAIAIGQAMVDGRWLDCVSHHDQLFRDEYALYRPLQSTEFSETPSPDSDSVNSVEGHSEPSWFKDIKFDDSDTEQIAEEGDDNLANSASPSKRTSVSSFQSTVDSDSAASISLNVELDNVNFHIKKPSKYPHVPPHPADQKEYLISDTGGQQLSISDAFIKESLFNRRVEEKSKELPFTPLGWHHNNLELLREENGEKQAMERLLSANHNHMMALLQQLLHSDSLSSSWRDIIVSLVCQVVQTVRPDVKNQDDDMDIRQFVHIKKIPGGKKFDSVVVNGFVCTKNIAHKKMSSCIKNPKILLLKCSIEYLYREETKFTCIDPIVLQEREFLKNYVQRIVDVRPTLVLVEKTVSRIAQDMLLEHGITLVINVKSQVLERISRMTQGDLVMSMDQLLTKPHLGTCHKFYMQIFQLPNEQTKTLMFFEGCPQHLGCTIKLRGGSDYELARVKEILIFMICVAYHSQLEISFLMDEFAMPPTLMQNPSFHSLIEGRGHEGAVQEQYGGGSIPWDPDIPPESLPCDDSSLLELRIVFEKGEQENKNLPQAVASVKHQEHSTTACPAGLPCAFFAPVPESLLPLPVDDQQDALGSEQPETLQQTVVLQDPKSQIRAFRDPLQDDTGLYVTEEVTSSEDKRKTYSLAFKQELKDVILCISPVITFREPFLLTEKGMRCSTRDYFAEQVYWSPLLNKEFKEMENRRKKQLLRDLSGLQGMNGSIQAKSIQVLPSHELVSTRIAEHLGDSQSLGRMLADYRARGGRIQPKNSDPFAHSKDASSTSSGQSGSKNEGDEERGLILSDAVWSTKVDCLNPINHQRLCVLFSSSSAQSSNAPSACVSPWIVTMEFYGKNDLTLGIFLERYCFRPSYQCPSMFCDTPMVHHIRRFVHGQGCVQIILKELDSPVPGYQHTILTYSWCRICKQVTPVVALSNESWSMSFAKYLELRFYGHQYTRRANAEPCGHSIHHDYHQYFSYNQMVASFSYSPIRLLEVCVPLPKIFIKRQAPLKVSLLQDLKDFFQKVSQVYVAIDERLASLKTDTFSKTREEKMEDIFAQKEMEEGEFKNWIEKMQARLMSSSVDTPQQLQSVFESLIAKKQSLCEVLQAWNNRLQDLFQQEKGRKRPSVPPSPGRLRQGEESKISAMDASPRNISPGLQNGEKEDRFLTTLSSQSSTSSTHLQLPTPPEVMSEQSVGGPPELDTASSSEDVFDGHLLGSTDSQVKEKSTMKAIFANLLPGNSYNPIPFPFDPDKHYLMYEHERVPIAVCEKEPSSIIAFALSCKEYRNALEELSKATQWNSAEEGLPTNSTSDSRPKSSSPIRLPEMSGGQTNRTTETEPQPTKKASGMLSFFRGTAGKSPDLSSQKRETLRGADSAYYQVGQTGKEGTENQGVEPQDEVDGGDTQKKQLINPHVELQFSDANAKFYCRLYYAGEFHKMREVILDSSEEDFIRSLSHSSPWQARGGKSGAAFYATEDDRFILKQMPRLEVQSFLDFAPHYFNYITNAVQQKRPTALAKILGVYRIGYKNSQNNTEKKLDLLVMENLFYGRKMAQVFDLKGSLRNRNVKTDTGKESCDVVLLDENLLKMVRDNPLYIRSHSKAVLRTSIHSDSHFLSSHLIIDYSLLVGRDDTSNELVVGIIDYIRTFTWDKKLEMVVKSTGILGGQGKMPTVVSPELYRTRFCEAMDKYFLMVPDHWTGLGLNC
Method: Full length human recombinant PIKFYVE expressed in baculovirus expression system as N-terminal GST-fusion protein (265 kDa) was obtained from Carna Biosciences (Kobe, Japan). […] The kinase reactions were allowed to proceed for 3 h at room temperature. […] Terminated plates were analyzed on a microfluidic electrophoresis instrument (Caliper LabChip® 3000, Caliper Life Sciences/Perkin Elmer).

[6] = viability, Presto Blue, 70 hours exposure, read-out: Normal human PBMCs, IC50

Row | IC50 (multiple myeloma KMS12E) | IC50 [2] | IC50 (T-cell lymphoma Hut-78) | Structure (SMILES) | secretion of IL-23 [1] | IC50 ([3]; 70 hours, Example 14 text, read-out: IC50, viability of normal PBMCs) | IC50 [3, 6] | Caspase3/7 activation (early apoptosis marker) [4] | IC50 [5] | selectivity towards cancer cells over normal cells ([3]; Hut-78 and KMS12E vs normal human PBMCs)
1 | 74 nM | 33 to 46 nM | 28 nM | Cc1cccc(/C=N/Nc2cc(N3CCOCC3)n3nc(-c4ccncc4)cc3n2)c1 [APY0201] | completely blocked secretion of IL-23 | > 10000 nM | > 10000 nM | induce apoptosis |  | 
2 | 73 nM |  | 27 nM | Cc1cccc(/C=N/Nc2cc(N3CCOCC3)nc(OCCc3ccccn3)n2)c1 [Apilimod, apilimod] |  |  | > 10000 nM | induce apoptosis |  | 

Row | Structure (SMILES) | IC50 (multiple myeloma KMS12E) | IC50 [2] | IC50 (T-cell lymphoma Hut-78) | secretion of IL-23 [1] | IC50 ([3]; 70 hours, Example 14 text, read-out: IC50, viability of normal PBMCs) | IC50 [3, 6] | Caspase3/7 activation (early apoptosis marker) [4] | IC50 [5] | selectivity towards cancer cells over normal cells ([3]; Hut-78 and KMS12E vs normal human PBMCs)
3 | Cc1cccc(/C=N/Nc2cc(N3CCOCC3)n3nc(-c4ccncc4)nc3n2)c1 [Compound 1, (E)-4-(5-(2-(3-methylbenzylidene)hydrazinyl)-2-(pyridin-4-yl)-[1,2,4]-triazolo[1,5-a]pyrimidin-7-yl)morpholine] | 115 nM |  | 47 nM | completely blocked secretion of IL-23 |  | > 10000 nM | triggered Caspase3/7 activation | 10 nM | showed selectivity towards cancer cells over normal cells
